Source: patent US20260250318A1, “COMPOSITIONS AND METHODS FOR CROSSING THE BLOOD BRAIN BARRIER” (VOYAGER THERAPEUTICS, INC., priority 2022, published 2026)

Tested on: brain
Assay: Maturation of TTM-001 capsid, NGS enrichment in brain of CD-1 Outbred mice
Type: in vivo
Conditions: NGS fold-enrichment of TTM-001 matured AAV capsid variants in the brain of CD-1 Outbred mice; intravenous 1.0×10^12 VG/dose; 14 days in life; RNA; relative to non-matured TTM-001 control
How it was run: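 Pooled matured TTM-001 or TTM-002 capsid libraries (loop IV region randomized by triple-codon or low-frequency point mutagenesis) dosed IV via tail vein at 1.0×10^12 VG/dose to three female CD-1 mice. Brain RNA taken after 14 days; RT-PCR and NGS gave fold enrichment versus parent TTM-001 or TTM-002 control.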

Going from KTINGSGSPHSLCQNQQT to KTINGSGSPHSLCSNQQT, the “Fold enrichment over TTM-001” value rises from 2.285 fold to 3.413 fold.

Going from KTINGSGSPHSLFANQQT to KTINGSGSPHSLFLNQQT, the “Fold enrichment over TTM-001” value rises from 2.365 fold to 3.358 fold.

First: KTINGSGSPHSLFPNQQT
Second: KTINGSGSPHSLFRNQQT
The “Fold enrichment over TTM-001” value of the first is lower: 2.106 fold for the first, 4.037 fold for the second.

Going from KTINGSGSPHSLLCNQQT to KTINGSGSPHSLLWNQQT, the “Fold enrichment over TTM-001” value rises from 3.644 fold to 7.983 fold.

Compared with KTINGSGSPHSLLYNQQT, KTINGSGSPHSLRFNQQT is higher in “Fold enrichment over TTM-001” value: 2.158 fold for the first, 4.765 fold for the second.

Going from KTINGSGSPHSLRHNQQT to KTINGSGSPHSLRRNQQT, the “Fold enrichment over TTM-001” value rises from 2.980 fold to 4.985 fold.

Compared with KTINGSGSPHSLRSNQQT, KTINGSGSPHSLRYNQQT is lower in “Fold enrichment over TTM-001” value: 2.778 fold for the first, 2.462 fold for the second.

Compared with KTINGSGSPHSLSCNQQT, KTINGSGSPHSLSWNQQT is lower in “Fold enrichment over TTM-001” value: 2.605 fold for the first, 2.588 fold for the second.

Compared with KTINGSGSPHSLTWNQQT, KTINGSGSPHSLVFNQQT is lower in “Fold enrichment over TTM-001” value: 2.698 fold for the first, 2.019 fold for the second.

First: KTINGSGSPHSLWLNQQT
Second: KTINGSGSPHSLWQNQQT
The “Fold enrichment over TTM-001” value of the first is higher: 4.412 fold for the first, 2.037 fold for the second.

Going from KTINGSGSPHSLWSNQQT to KTINGSGSPHSLYLNQQT, the “Fold enrichment over TTM-001” value falls from 4.467 fold to 3.264 fold.

First: KTINGSGSPHSMFPNQQT
Second: KTINGSGSPHSMLYNQQT
The “Fold enrichment over TTM-001” value of the first is lower: 2.419 fold for the first, 2.808 fold for the second.

First: KTINGSGSPHSMYLNQQT
Second: KTINGSGSPHSPLWNQQT
The “Fold enrichment over TTM-001” value of the first is lower: 2.000 fold for the first, 2.562 fold for the second.

Going from KTINGSGSPHSRGRNQQT to KTINGSGSPHSRKLNQQT, the “Fold enrichment over TTM-001” value falls from 4.961 fold to 3.646 fold.

Going from KTINGSGSPHSRKQNQQT to KTINGSGSPHSRLFNQQT, the “Fold enrichment over TTM-001” value rises from 2.162 fold to 2.542 fold.

First: KTINGSGSPHSRLKNQQT
Second: KTINGSGSPHSRLRNQQT
The “Fold enrichment over TTM-001” value of the first is lower: 3.156 fold for the first, 3.851 fold for the second.

Compared with KTINGSGSPHSRPRNQQT, KTINGSGSPHSRRLNQQT is higher in “Fold enrichment over TTM-001” value: 2.164 fold for the first, 3.251 fold for the second.

Compared with KTINGSGSPHSRRQNQQT, KTINGSGSPHSRRSNQQT is higher in “Fold enrichment over TTM-001” value: 2.166 fold for the first, 2.851 fold for the second.

Going from KTINGSGSPHSRRVNQQT to KTINGSGSPHSRSRNQQT, the “Fold enrichment over TTM-001” value rises from 2.676 fold to 3.784 fold.

Going from KTINGSGSPHSRTRNQQT to KTINGSGSPHSRTYNQQT, the “Fold enrichment over TTM-001” value falls from 2.912 fold to 2.009 fold.

Compared with KTINGSGSPHSRVRNQQT, KTINGSGSPHSRWQNQQT is higher in “Fold enrichment over TTM-001” value: 2.540 fold for the first, 3.372 fold for the second.

Compared with KTINGSGSPHSRYSNQQT, KTINGSGSPHSSCLNQQT is lower in “Fold enrichment over TTM-001” value: 2.536 fold for the first, 2.471 fold for the second.

Going from KTINGSGSPHSSCQNQQT to KTINGSGSPHSSKRNQQT, the “Fold enrichment over TTM-001” value rises from 2.365 fold to 2.978 fold.

First: KTINGSGSPHSSLCNQQT
Second: KTINGSGSPHSSLWNQQT
The “Fold enrichment over TTM-001” value of the first is lower: 2.592 fold for the first, 3.179 fold for the second.

First: KTINGSGSPHSSRKNQQT
Second: KTINGSGSPHSSRRNQQT
The “Fold enrichment over TTM-001” value of the first is lower: 2.585 fold for the first, 4.920 fold for the second.

Compared with KTINGSGSPHSSWANQQT, KTINGSGSPHSTRLNQQT is higher in “Fold enrichment over TTM-001” value: 2.264 fold for the first, 2.860 fold for the second.

First: KTINGSGSPHSTRPNQQT
Second: KTINGSGSPHSTRQNQQT
The “Fold enrichment over TTM-001” value of the first is higher: 2.598 fold for the first, 2.212 fold for the second.

Going from KTINGSGSPHSTVWNQQT to KTINGSGSPHSTWLNQQT, the “Fold enrichment over TTM-001” value rises from 2.196 fold to 3.583 fold.

Compared with KTINGSGSPHSTWTNQQT, KTINGSGSPHSVFLNQQT is lower in “Fold enrichment over TTM-001” value: 2.307 fold for the first, 2.069 fold for the second.

Going from KTINGSGSPHSVLFNQQT to KTINGSGSPHSVSWNQQT, the “Fold enrichment over TTM-001” value rises from 2.194 fold to 2.223 fold.

First: KTINGSGSPHSVYLNQQT
Second: KTINGSGSPHSVYRNQQT
The “Fold enrichment over TTM-001” value of the first is higher: 4.426 fold for the first, 2.432 fold for the second.

First: KTINGSGSPHSWGSNQQT
Second: KTINGSGSPHSWLQNQQT
The “Fold enrichment over TTM-001” value of the first is lower: 2.473 fold for the first, 2.665 fold for the second.

Going from KTINGSGSPHSWLSNQQT to KTINGSGSPHSWSLNQQT, the “Fold enrichment over TTM-001” value falls from 3.495 fold to 2.523 fold.

First: KTINGSGSPHSWTQNQQT
Second: KTINGSGSPHSYLINQQT
The “Fold enrichment over TTM-001” value of the first is lower: 2.084 fold for the first, 2.650 fold for the second.

Going from KTINGSGSPHSYLLNQQT to KTINGSGSPHSYLRNQQT, the “Fold enrichment over TTM-001” value rises from 2.147 fold to 4.566 fold.

Compared with KTINGSGSPHSYRPNQQT, KTINGSGSPHSYSRNQQT is lower in “Fold enrichment over TTM-001” value: 3.095 fold for the first, 2.196 fold for the second.

Compared with KTINGSGSPHSYVRNQQT, KTINGSGSPHTKWQNQQT is lower in “Fold enrichment over TTM-001” value: 2.339 fold for the first, 2.222 fold for the second.

Compared with KTINGSGSPHTLFQNQQT, KTINGSGSPHTLWQNQQT is higher in “Fold enrichment over TTM-001” value: 2.136 fold for the first, 2.168 fold for the second.

Going from KTINGSGSPHTLYQNQQT to KTINGSGSPHTRRQNQQT, the “Fold enrichment over TTM-001” value rises from 3.117 fold to 3.350 fold.

First: KTINGSGSPHTWLQNQQT
Second: KTINGSGSPHTWSQNQQT
The “Fold enrichment over TTM-001” value of the first is higher: 2.397 fold for the first, 2.011 fold for the second.

Going from KTINGSGSPHTWTQNQQT to KTINGSGSPHVLFQNQQT, the “Fold enrichment over TTM-001” value rises from 2.045 fold to 2.203 fold.

Compared with KTINGSGSPHVLWQNQQT, KTINGSGSPHVRRQNQQT is lower in “Fold enrichment over TTM-001” value: 4.533 fold for the first, 4.114 fold for the second.

First: KTINGSGSPHVTWQNQQT
Second: KTINGSGSPHWLAQNQQT
The “Fold enrichment over TTM-001” value of the first is lower: 2.281 fold for the first, 3.192 fold for the second.

Compared with KTINGSGSPHWSLQNQQT, KTINGSGSPHWSVQNQQT is lower in “Fold enrichment over TTM-001” value: 2.389 fold for the first, 2.138 fold for the second.

Going from KTINGSGSPHWVSQNQQT to KTINGSGSPHYLLQNQQT, the “Fold enrichment over TTM-001” value rises from 2.007 fold to 2.011 fold.

Going from KTINGSGSPHYLVQNQQT to KTINGSGTPHSKAQNQQT, the “Fold enrichment over TTM-001” value falls from 3.819 fold to 2.259 fold.

Compared with KTINGSHSPHRKAQNQQT, KTINGSISPHFVAQNQQT is lower in “Fold enrichment over TTM-001” value: 2.028 fold for the first, 2.006 fold for the second.

Going from KTINGSKSPHFKAQNQQT to KTINGSKSPHRKAQNQQT, the “Fold enrichment over TTM-001” value falls from 3.285 fold to 2.696 fold.

Compared with KTINGSKSPHRLAQNQQT, KTINGSKSPHRTAQNQQT is lower in “Fold enrichment over TTM-001” value: 3.073 fold for the first, 2.950 fold for the second.

Going from KTINGSLSPHCLAQNQQT to KTINGSLSPHIYAQNQQT, the “Fold enrichment over TTM-001” value falls from 2.577 fold to 2.536 fold.

Compared with KTINGSLSPHLCAQNQQT, KTINGSLSPHLFAQNQQT is lower in “Fold enrichment over TTM-001” value: 2.775 fold for the first, 2.285 fold for the second.

Going from KTINGSLSPHRRAQNQQT to KTINGSLSPHSCAQNQQT, the “Fold enrichment over TTM-001” value rises from 2.717 fold to 3.268 fold.

Compared with KTINGSLSPHSWAQNQQT, KTINGSLSPHTWAQNQQT is lower in “Fold enrichment over TTM-001” value: 2.885 fold for the first, 2.115 fold for the second.

First: KTINGSLSPHYMAQNQQT
Second: KTINGSMSPHLYAQNQQT
The “Fold enrichment over TTM-001” value of the first is lower: 2.015 fold for the first, 2.354 fold for the second.

First: KTINGSMSPHRKAQNQQT
Second: KTINGSMSPHRRAQNQQT
The “Fold enrichment over TTM-001” value of the first is higher: 2.251 fold for the first, 2.028 fold for the second.

First: KTINGSNSPHRKAQNQQT
Second: KTINGSPSPHLFAQNQQT
The “Fold enrichment over TTM-001” value of the first is lower: 2.218 fold for the first, 2.238 fold for the second.

Going from KTINGSPSPHRKAQNQQT to KTINGSPSPHRRAQNQQT, the “Fold enrichment over TTM-001” value rises from 2.430 fold to 3.216 fold.

First: KTINGSPSPHYLAQNQQT
Second: KTINGSRSPHARAQNQQT (peptide inserted in AAV capsid)
The “Fold enrichment over TTM-001” value of the first is lower: 2.391 fold for the first, 2.745 fold for the second.

Going from “KTINGSRSPHCSAQNQQT (peptide inserted in AAV capsid)” to “KTINGSRSPHFKAQNQQT (peptide inserted in AAV capsid)”, the “Fold enrichment over TTM-001” value falls from 2.426 fold to 2.277 fold.

First: KTINGSRSPHIRAQNQQT (peptide inserted in AAV capsid)
Second: KTINGSRSPHLFAQNQQT (peptide inserted in AAV capsid)
The “Fold enrichment over TTM-001” value of the first is lower: 2.356 fold for the first, 3.601 fold for the second.

Compared with “KTINGSRSPHLRAQNQQT (peptide inserted in AAV capsid)”, “KTINGSRSPHRLAQNQQT (peptide inserted in AAV capsid)” is lower in “Fold enrichment over TTM-001” value: 3.410 fold for the first, 2.698 fold for the second.

Going from “KTINGSRSPHRPAQNQQT (peptide inserted in AAV capsid)” to “KTINGSRSPHRRAQNQQT (peptide inserted in AAV capsid)”, the “Fold enrichment over TTM-001” value rises from 2.061 fold to 2.615 fold.

First: KTINGSRSPHRSAQNQQT (peptide inserted in AAV capsid)
Second: KTINGSRSPHSKAQNRQT (peptide inserted in AAV capsid)
The “Fold enrichment over TTM-001” value of the first is higher: 2.536 fold for the first, 2.155 fold for the second.

Compared with “KTINGSRSPHSWAQNQQT (peptide inserted in AAV capsid)”, “KTINGSRSPHTRAQNQQT (peptide inserted in AAV capsid)” is higher in “Fold enrichment over TTM-001” value: 2.559 fold for the first, 3.989 fold for the second.

Going from “KTINGSRSPHVRAQNQQT (peptide inserted in AAV capsid)” to “KTINGSRSPHYKAQNQQT (peptide inserted in AAV capsid)”, the “Fold enrichment over TTM-001” value rises from 2.412 fold to 2.879 fold.

For “KTINGSSSPHCLAQNQQT (peptide inserted in AAV capsid)”, the “Fold enrichment over TTM-001” value was 2.074 fold.
